On the set-up of data set [1]: species or system male mice. As to conditions: mouse, in vivo.
Details of data set [2]: species or system male white mice. As to conditions: mouse, in vivo.
Details of data set [3]: species or system male rats (SIV; printed "rate"). As to conditions: rat, in vivo.
Details of data set [4]: species or system male mice (NMRI). As to conditions: in vivo.
Data set [5] is described as follows: in vivo. To be noted: mouse.
Details of data set [6]: species or system mice and rats. As to conditions: in vivo.

Like-named read-outs stand apart in the source and are kept apart here.

A word on the LD50: it is the dose expected to kill half of the subjects tested. Read a low LD50 as a more toxic substance. With `CCOC(=O)[C@]1(c2ccccc2)C=C[C@H](N(C)C)CC1` (relative stereo) [Example 1, 4r-Dimethylamino-1t-phenyl-1c-ethoxycarbonyl-cyclohexene-(2)], in data set [1], the “Analgesic potency/activity (in words)” value was “more potent analgesics than (±)-3r-dimethylamino-4c-phenyl-4t-ethoxycarbonyl-cyclohexene-(1) (Valoron ^R), a positional isomer of the former and Dolantin ^R”. The “Analgesia ED 50 Phenyl-p-Quinone Writhing Test” value in data set [1] (po) came out at 13.6 mg/kg; in data set [1] (sc), 3.0 mg/kg. Also, the “Reduction of Spontaneous Motility by % Photocage” value (“Reduction … by % Photocage” for short) is reported as 38% in data set [2] (sc, 5 mg/kg) and 82% in data set [2] (sc, 10 mg/kg). In addition, the “Decrease in Body Temperature in ° C” value in data set [3] (sc, 20 mg/kg) is -1.4 °C. In data set [4] (sc, 30 min), the “Aggressive Mouse ED 50” value is on record as 4.0 mg/kg. Further, the LD50 at 48 h worked out at 297 mg/kg in data set [5] (po) and 155 mg/kg in data set [5] (sc).

As to `CCOC(=O)[C@]1(c2ccccc2)C=C[C@@H](N2CCN(c3ccccc3)CC2)CC1` (relative stereo) [4r-(4'-Phenyl-piperazino-1')-1c-phenyl-1t-cyclohexene-(2)], in data set [1] (po), the “Analgesia ED 50 Phenyl-p-Quinone Writhing Test” value is reported as above 50.0 mg/kg. Also, the “Reduction … by % Photocage” value is 34% in data set [2] (10 mg/kg) and “no effect” in data set [2] (sc, 5 mg/kg). Further, the “Decrease in Body Temperature in ° C” value in data set [3] (200 mg/kg) is -1.7 °C. In data set [5] (po), this compound came in with an LD50 at 48 h of around 1600 mg/kg.

On to `CCOC(=O)[C@]1(c2ccccc2)C=C[C@H](N2CCC(c3ccccc3)CC2)CC1` (relative stereo) [Example 3, 4r-(4'-Phenylpiperidino-1')-1t-phenyl-1c-ethoxycarbonylcyclohexene-(2)], for which the “Analgesia ED 50 Phenyl-p-Quinone Writhing Test” value in data set [1] (po) was determined as 10.0 mg/kg. Moreover, the “Reduction … by % Photocage” value in data set [2] (25 mg/kg) is 91%. For the same compound, the “Decrease in Body Temperature in ° C” value in data set [3] (50 mg/kg) was -0.5 °C. In data set [4] (po, 30 min), the “Aggressive Mouse ED 50” value turned out to be 30 mg/kg. In data set [5] (po), this compound gave a 50% lethal dose (LD50) at 48 h of 800 mg/kg.

Regarding `CCOC(=O)[C@]1(c2ccccc2)C=C[C@H](N2CCCCC2)CC1` (relative stereo) [Example 2, 4r-(Piperidino-1')-1t-phenyl-1c-ethoxycarbonyl-cyclohexene-(2)], the “Analgesia ED 50 Phenyl-p-Quinone Writhing Test” value in data set [1] (sc) came to 5.3 mg/kg. In addition, the “Reduction … by % Photocage” value in data set [2] (sc, 10 mg/kg) is reported as 93%. The “Decrease in Body Temperature in ° C” value in data set [3] (sc, 25 mg/kg) was -1.6 °C. The “Aggressive Mouse ED 50” value in data set [4] (sc, 30 min) is given as 8.0 mg/kg. In addition, the LD50 at 48 h in data set [5] (sc) is 150 mg/kg.

Turning to `CCOC(=O)C1(c2ccccc2)CCN(C)CC1` [Dolantin, Ethyl 1-methyl 4-phenyl-piperidin-4-carboxylate], the entries for the “Analgesia ED 50 Phenyl-p-Quinone Writhing Test” value in data set [1] (po) and in data set [1] (sc) were 28.5 mg/kg and 6.3 mg/kg, respectively. The “Reduction … by % Photocage” value in data set [2] is on record as “no effect”; in data set [2] (sc, 15 mg/kg), 30%. Moreover, the “Decrease in Body Temperature in ° C” value in data set [3] and in data set [3] (sc) was “no effect” each time. The “Aggressive Mouse ED 50” value in data set [4] was “no effect”; in data set [4] (sc, 30 min), above 15 mg/kg. Also, in data set [6], the “Neuroleptic activity (in words)” value is “no significant neuroleptic activity”. The figures for the LD50 at 48 h in data set [5] (po) and in data set [5] (sc) were 252 mg/kg and 154 mg/kg, respectively.

For the compound `CCOC(=O)[C@]1(c2ccccc2)C=C[C@@H](N2CCCCC2)CC1` (relative stereo) [4r-(Piperidino-1')-1c-phenyl-1t-ethoxycarbonyl-cyclohexene-(2)], the “Analgesia ED 50 Phenyl-p-Quinone Writhing Test” value in data set [1] (sc) is on record as above 20.0 mg/kg. For the same compound, in data set [2] (sc, 40 mg/kg), the “Reduction … by % Photocage” value came out at 11%. Also, the “Decrease in Body Temperature in ° C” value in data set [3] (sc, 50 mg/kg) was -0.1 °C. Moreover, the “Aggressive Mouse ED 50” value in data set [4] (sc) was “no effect”. Moreover, the LD50 at 48 h in data set [5] (sc) was 390 mg/kg.

As to `CCOC(=O)[C@]1(c2ccccc2)C=C[C@@H](N2CCN(c3ccccc3OC)CC2)CC1` (relative stereo) [4r-[4'-(2-Methoxy-phenyl)piperazino-1']-1c-phenyl-1t-ethoxycarbonyl-cyclohexene-(2)], the “Analgesia ED 50 Phenyl-p-Quinone Writhing Test” value in data set [1] (po) is above 150.00 mg/kg. For the same compound, the “Reduction … by % Photocage” value in data set [2] (50 mg/kg) amounted to 17%. In data set [5] (po), this compound registered an LD50 at 48 h above 1600 mg/kg.

Consider `CCOC(=O)[C@]1(c2ccccc2)C=C[C@H](N2CCN(c3ccccc3OC)CC2)CC1` (relative stereo) [Example 4, 4r-[4'-(2-Methoxyphenyl)piperazino-1']-1t-phenyl-1c-ethoxycarbonyl-cyclohexene-(2)], for which the “Analgesia ED 50 Phenyl-p-Quinone Writhing Test” value in data set [1] (po) was 50.0 mg/kg. In addition, the “Reduction … by % Photocage” value in data set [2] (50 mg/kg) is listed as 86%. Also, the LD50 at 48 h in data set [5] (po) was around 2000 mg/kg.

Consider `CCOC(=O)[C@]1(c2ccccc2)C=C[C@@H](N2CCC(c3ccccc3)CC2)CC1` (relative stereo) [4r-(4'-Phenyl-piperidino-1')-1c-phenyl-1t-ethoxycarbonyl-cyclohexene-(2)], for which the “Analgesia ED 50 Phenyl-p-Quinone Writhing Test” value in data set [1] (po) is on record as “ca. 75.0 mg/kg”. In data set [2] (100 mg/kg), the “Reduction … by % Photocage” value is given as 79%. Moreover, the “Decrease in Body Temperature in ° C” value in data set [3] is recorded as “no effect”. Further, the “Aggressive Mouse ED 50” value in data set [4] was “no effect”. Also, the LD50 at 48 h in data set [5] (po) worked out at 850 mg/kg.

Consider `CCOC(=O)[C@]1(c2ccccc2)C=C[C@H](N2CCN(c3ccccc3)CC2)CC1` (relative stereo) [Example 5, 4r-(4'-Phenylpiperazino-1')-1t-phenyl-1c-ethoxycarbonylcyclohexene-(2)], for which the “Analgesia ED 50 Phenyl-p-Quinone Writhing Test” value in data set [1] (po) stood at 25.0 mg/kg. For the same compound, the “Reduction … by % Photocage” value in data set [2] (10 mg/kg) worked out at 59%; in data set [2] (50 mg/kg), 94%; in data set [2] (sc, 5 mg/kg), 71%. Besides, the “Decrease in Body Temperature in ° C” value in data set [3] (100 mg/kg) is -2.6 °C. Further, the “Aggressive Mouse ED 50” value in data set [4] (po, 30 min) was determined as 25 mg/kg. In data set [5] (po), this compound registered an LD50 at 48 h of 1600 mg/kg.

For the compound `CCOC(=O)[C@]1(c2ccccc2)C=C[C@@H](N(C)C)CC1` (relative stereo) [4r-Dimethyl-amino-1c-phenyl-1t-ethoxycarbonyl-cyclohexene-(2)], the “Analgesia ED 50 Phenyl-p-Quinone Writhing Test” value in data set [1] (po) was 118.0 mg/kg; in data set [1] (sc), 14.6 mg/kg. Besides, the “Reduction … by % Photocage” value amounted to 0% in data set [2] (sc, 5 mg/kg) and 25% in data set [2] (sc, 20 mg/kg). Moreover, the “Decrease in Body Temperature in ° C” value in data set [3] (sc) is recorded as “no effect”. Besides, the “Aggressive Mouse ED 50” value in data set [4] (sc) is given as “no effect”. In addition, the LD50 at 48 h in data set [5] (po) stood at 490 mg/kg; in data set [5] (sc), 136 mg/kg.

For the origin of these results see patent US4008233A (priority 1972, dated 1977).
